# Experimental data from patent US20190209682A1, “ISOFORM-SPECIFIC, CONTEXT-PERMISSIVE TGFB1 INHIBITORS AND USE THEREOF” (Scholar Rock, Inc., priority 2017, published 2019).
# What was measured:
# [1] = tested on: tonic SMAD2/3 signaling in BAL cells; assay: Pharmacodynamics, tonic phospho-SMAD2/3 in BAL cells of healthy rats; assay type: in vivo, rat; details: single oral gavage dose 100 mg/kg, 2 hours post-dosing
# Experimental: To confirm isoform-selective inhibition of TGFβ1 in vivo, a pharmacodynamics study was conducted in which effects of Ab3 on tonic phospho-SMAD2/3 levels were assessed in bronchoalveolar lavage (BAL) cells collected from healthy rats. It is reported in the literature that under homeostatic conditions, BAL cells predominantly express TGFβ2/3, but little TGFβ1, while the latter becomes preferentially elevated in pathologic conditions.
# Healthy Sprague Dawley rats (approximately 6-8 weeks old, weighing 200-250 g at the beginning of the study; Charles River) were randomized by bodyweight into study groups and dosed as described below.
# Animals received test antibodies (huNEG-mIgG1, […], or Ab3) on Days 1, 8, and 15 by intraperitoneal injection. Animals are euthanized on Day 16 for BAL and serum collections. One group of control animals was dosed with a single oral gavage (PO) dose of LY2109761 (small molecule ALK5 inhibitor) at 100 mg/kg and was euthanized at 2 hours (+/−20 min) post-dosing for BAL collections.
# To collect BAL samples, the whole lung was lavaged three times with 5.0 mL of ice-cold Dulbecco's phosphate buffered saline. […]
# Phospho-SMAD2/3 assays were performed by ELISA (Cell Signaling Technologies) according to the manufacturer's instructions. Results were assessed by phosphorylated-to-total SMAD2/3 ratios.
# [2] = Rat toxicity study, Phase I; details: for Aortic root: Hemorrhage, Minimal / Aortic root: Infiltrate, mixed cell, Minimal / Atrium: Hemorrhage, Minimal / Atrium: Hyperplasia, endothelium, Minimal / Atrium: Infiltrate, mixed cell, Minimal / Atrium: Infiltrate, mixed cell, Slight / Coronary artery: Necrosis with inflammation, Slight / Heart valves: Valvulopathy, Minimal / Heart valves: Valvulopathy, Moderate / Heart valves: Valvulopathy, Slight / Myocardium: Degeneration/necrosis, Minimal / Myocardium: Degeneration/necrosis, Slight / Myocardium: Hemorrhage, Slight / Myocardium: Infiltrate, mixed cell, Slight: incidence
# Experimental: Animal body weight was determined at days 1, 3, and 7 of the dosing phase. Animals were sacrificed at day 8 and necropsies performed.
# [3] = Rat toxicity study, Phase II; assay type: in vivo
# [4] = 200 mg/kg oral gavage once daily for five days
smiles,measurement,setting,value
c1ccc(-c2nn3c(c2-c2ccnc4cc(OCCN5CCOCC5)ccc24)CCC3)nc1 [LY2109761],Tonic SMAD2/3 signaling (phosphorylated-to-total SMAD2/3 ratio),[1],significantly suppressed
same,Animals found dead at day 7,"[2]; 200 mg/kg oral gavage once daily, n=5",Two
same,"Aortic root: Hemorrhage, Minimal","[2]; 200 mg/kg/day, n=5",1
same,"Aortic root: Infiltrate, mixed cell, Minimal","[2]; 200 mg/kg/day, n=5",1
same,"Atrium: Hemorrhage, Minimal","[2]; 200 mg/kg/day, n=5",1
same,"Atrium: Hyperplasia, endothelium, Minimal","[2]; 200 mg/kg/day, n=5",1
same,"Atrium: Infiltrate, mixed cell, Minimal","[2]; 200 mg/kg/day, n=5",2
same,"Atrium: Infiltrate, mixed cell, Slight","[2]; 200 mg/kg/day, n=5",0
same,"Coronary artery: Necrosis with inflammation, Slight","[2]; 200 mg/kg/day, n=5",0
same,"Heart valves: Valvulopathy, Minimal","[2]; 200 mg/kg/day, n=5",1
same,"Heart valves: Valvulopathy, Moderate","[2]; 200 mg/kg/day, n=5",1
same,"Heart valves: Valvulopathy, Slight","[2]; 200 mg/kg/day, n=5",3
same,"Myocardium: Degeneration/necrosis, Minimal","[2]; 200 mg/kg/day, n=5",0
same,"Myocardium: Degeneration/necrosis, Slight","[2]; 200 mg/kg/day, n=5",1
same,"Myocardium: Hemorrhage, Slight","[2]; 200 mg/kg/day, n=5",1
same,"Myocardium: Infiltrate, mixed cell, Slight","[2]; 200 mg/kg/day, n=5",0
same,Mortality,"[2]; 300 mg/kg oral gavage once daily, days 3, 6, or 7, all animals, n=5",sacrificed in a moribund condition or found dead
same,"Aortic root: Hemorrhage, Minimal","[2]; 300 mg/kg/day, n=5",0
same,"Aortic root: Infiltrate, mixed cell, Minimal","[2]; 300 mg/kg/day, n=5",0
same,"Atrium: Hemorrhage, Minimal","[2]; 300 mg/kg/day, n=5",2
same,"Atrium: Hyperplasia, endothelium, Minimal","[2]; 300 mg/kg/day, n=5",3
same,"Atrium: Infiltrate, mixed cell, Minimal","[2]; 300 mg/kg/day, n=5",3
same,"Atrium: Infiltrate, mixed cell, Slight","[2]; 300 mg/kg/day, n=5",1
same,"Coronary artery: Necrosis with inflammation, Slight","[2]; 300 mg/kg/day, n=5",1
same,"Heart valves: Valvulopathy, Minimal","[2]; 300 mg/kg/day, n=5",2
same,"Heart valves: Valvulopathy, Moderate","[2]; 300 mg/kg/day, n=5",0
same,"Heart valves: Valvulopathy, Slight","[2]; 300 mg/kg/day, n=5",3
same,"Myocardium: Degeneration/necrosis, Minimal","[2]; 300 mg/kg/day, n=5",1
same,"Myocardium: Degeneration/necrosis, Slight","[2]; 300 mg/kg/day, n=5",1
same,"Myocardium: Hemorrhage, Slight","[2]; 300 mg/kg/day, n=5",0
same,"Myocardium: Infiltrate, mixed cell, Slight","[2]; 300 mg/kg/day, n=5",1
same,Animals with clear fluid in the thoracic cavity and enlarged thymus (edema),"[2]; 300 mg/kg, found dead on Day 3",one
same,Animals with abnormally-shaped sternum,"[2]; each treatment group, 200 mg/kg or 300 mg/kg",four
same,Bone findings,"[2]; sternum, femur and tibia, higher incidence and/or severity with LY2109761",macroscopic abnormally shaped sternum and microscopic increased thickness of the hypertrophic zone
same,"Heart valve findings, microscopic",[2]; ≥200 mg/kg,valvulopathy
same,Heart weights,[2]; ≥200 mg/kg,Increased heart weights
same,Heart weights,[3]; 200 mg/kg,increased heart weights
same,Liver weights,[3]; 200 mg/kg,Increased liver weights
same,Thymus weights,[3]; 200 mg/kg,decreased thymus weights
same,Thyroid weights,[3]; 200 mg/kg,increased thyroid weights
same,Uterus weights,[3]; 200 mg/kg,decreased uterus weights
same,Heart findings,[3]; [4],test article-related heart findings occurred
same,"Microscopic findings in bones, liver, pancreas (artery), thymus, thyroid, female reproductive tissues, mammary gland",[3]; [4],microscopic findings occurred
